{"source": "PubChem BioAssay AID1259407", "about": "(Chemical Carcinogenesis Research Information System (CCRIS), 2018)", "system": "CCRIS mutagenicity, Ames/micronucleus/aberration tests", "test": "CCRIS mutagenicity studies", "note": "Activity calls are given as the source filed them. No rule for the calls is given here.", "data": [{"smiles": "ClC(Cl)(Cl)Cl", "values": [{"measurement": "mutagenic call", "setting": "End Point: IN VITRO CHROMOSOMAL ABERRATIONS, Test System: CHO-LB CELLS, Metabolic Activation: NONE", "result": "inactive; negative"}, {"measurement": "mutagenic call", "setting": "End Point: IN VITRO CHROMOSOMAL ABERRATIONS, Test System: CHO-LB CELLS, Metabolic Activation: RAT, LIVER, S-9, AROCLOR 1254", "result": "inactive; negative"}, {"measurement": "mutagenic call", "setting": "End Point: IN VIVO MICRONUCLEUS, Test System: BONE MARROW POLYCHROMATIC ERYTHROCYTES, Species: MOUSE, Strain/Sex: MALE, Route: IP INJECTION", "result": "active; positive"}, {"measurement": "mutagenic call", "setting": "End Point: In vitro chromosomal aberrations, Test System: Chinese hamster lung (CHL/IU) cells, Metabolic Activation: Rat, Liver, S9, Phenobarbital and 5,6-benzoflavone", "result": "inactive; negative"}, {"measurement": "mutagenic call", "setting": "Test System: AMES SALMONELLA TYPHIMURIUM, Strain/Indicator: TA97, Metabolic Activation: HAMSTER, LIVER, S-9, AROCLOR 1254 (10%), Method: PREINCUBATION", "result": "inactive; negative"}, {"measurement": "mutagenic call", "setting": "Test System: AMES SALMONELLA TYPHIMURIUM, Strain/Indicator: TA97, Metabolic Activation: HAMSTER, LIVER, S-9, AROCLOR 1254 (30%), Method: PREINCUBATION", "result": "inactive; negative"}, {"measurement": "mutagenic call", "setting": "Test System: AMES SALMONELLA TYPHIMURIUM, Strain/Indicator: TA97, Metabolic Activation: NONE, Method: PREINCUBATION", "result": "inactive; negative"}, {"measurement": "mutagenic call", "setting": "Test System: AMES SALMONELLA TYPHIMURIUM, Strain/Indicator: TA97, Metabolic Activation: NONE, Method: STANDARD PLATE", "result": "inactive; negative"}, {"measurement": "mutagenic call", "setting": "Test System: AMES SALMONELLA TYPHIMURIUM, Strain/Indicator: TA97, Metabolic Activation: RAT, LIVER, S-9, AROCLOR 1254 (10%), Method: PREINCUBATION", "result": "inactive; negative"}, {"measurement": "mutagenic call", "setting": "Test System: AMES SALMONELLA TYPHIMURIUM, Strain/Indicator: TA97, Metabolic Activation: RAT, LIVER, S-9, AROCLOR 1254 (30%), Method: PREINCUBATION", "result": "inactive; negative"}, {"measurement": "mutagenic call", "setting": "Test System: AMES SALMONELLA TYPHIMURIUM, Strain/Indicator: TA97, Metabolic Activation: RAT, LIVER, S-9, AROCLOR 1254, Method: STANDARD PLATE", "result": "inactive; negative"}, {"measurement": "mutagenic call", "setting": "Test System: AMES SALMONELLA TYPHIMURIUM, Strain/Indicator: TA98, Metabolic Activation: HAMSTER, LIVER, S-9, AROCLOR 1254 (10%), Method: PREINCUBATION", "result": "inactive; negative"}, {"measurement": "mutagenic call", "setting": "Test System: AMES SALMONELLA TYPHIMURIUM, Strain/Indicator: TA98, Metabolic Activation: HAMSTER, LIVER, S-9, AROCLOR 1254 (30%), Method: PREINCUBATION", "result": "inactive; negative"}, {"measurement": "mutagenic call", "setting": "Test System: AMES SALMONELLA TYPHIMURIUM, Strain/Indicator: TA98, Metabolic Activation: NONE, Method: GAS EXPOSURE", "result": "active; positive"}, {"measurement": "mutagenic call", "setting": "Test System: AMES SALMONELLA TYPHIMURIUM, Strain/Indicator: TA98, Metabolic Activation: NONE, Method: PREINCUBATION", "result": "inactive; negative"}, {"measurement": "mutagenic call", "setting": "Test System: AMES SALMONELLA TYPHIMURIUM, Strain/Indicator: TA98, Metabolic Activation: RAT LIVER S-9, PHENOBARBITOL AND 5,6-BENZOFLAVONE, Method: GAS EXPOSURE", "result": "inactive; negative"}, {"measurement": "mutagenic call", "setting": "Test System: AMES SALMONELLA TYPHIMURIUM, Strain/Indicator: TA98, Metabolic Activation: RAT, LIVER, S-9, AROCLOR 1254 (10%), Method: PREINCUBATION", "result": "inactive; negative"}, {"measurement": "mutagenic call", "setting": "Test System: AMES SALMONELLA TYPHIMURIUM, Strain/Indicator: TA98, Metabolic Activation: RAT, LIVER, S-9, AROCLOR 1254 (30%), Method: PREINCUBATION", "result": "inactive; negative"}, {"measurement": "mutagenic call", "setting": "Test System: AMES SALMONELLA TYPHIMURIUM, Strain/Indicator: TA98, Metabolic Activation: RAT, LIVER, S-9, AROCLOR 1254, Method: STANDARD PLATE", "result": "inactive; negative"}, {"measurement": "mutagenic call", "setting": "Test System: AMES SALMONELLA TYPHIMURIUM, Strain/Indicator: TA100, Metabolic Activation: HAMSTER, LIVER, S-9, AROCLOR 1254 (10%), Method: PREINCUBATION", "result": "inactive; negative"}, {"measurement": "mutagenic call", "setting": "Test System: AMES SALMONELLA TYPHIMURIUM, Strain/Indicator: TA100, Metabolic Activation: HAMSTER, LIVER, S-9, AROCLOR 1254 (30%), Method: PREINCUBATION", "result": "inactive; negative"}, {"measurement": "mutagenic call", "setting": "Test System: AMES SALMONELLA TYPHIMURIUM, Strain/Indicator: TA100, Metabolic Activation: NONE, Method: PREINCUBATION", "result": "inactive; negative"}, {"measurement": "mutagenic call", "setting": "Test System: AMES SALMONELLA TYPHIMURIUM, Strain/Indicator: TA100, Metabolic Activation: RAT, LIVER, S-9, AROCLOR 1254 (10%), Method: PREINCUBATION", "result": "inactive; negative"}, {"measurement": "mutagenic call", "setting": "Test System: AMES SALMONELLA TYPHIMURIUM, Strain/Indicator: TA100, Metabolic Activation: RAT, LIVER, S-9, AROCLOR 1254 (30%), Method: PREINCUBATION", "result": "inactive; negative"}, {"measurement": "mutagenic call", "setting": "Test System: AMES SALMONELLA TYPHIMURIUM, Strain/Indicator: TA1535, Metabolic Activation: HAMSTER, LIVER, S-9, AROCLOR 1254 (10%), Method: PREINCUBATION", "result": "inactive; negative"}, {"measurement": "mutagenic call", "setting": "Test System: AMES SALMONELLA TYPHIMURIUM, Strain/Indicator: TA1535, Metabolic Activation: HAMSTER, LIVER, S-9, AROCLOR 1254 (30%), Method: PREINCUBATION", "result": "inactive; negative"}, {"measurement": "mutagenic call", "setting": "Test System: AMES SALMONELLA TYPHIMURIUM, Strain/Indicator: TA1535, Metabolic Activation: NONE, Method: PREINCUBATION", "result": "inactive; negative"}, {"measurement": "mutagenic call", "setting": "Test System: AMES SALMONELLA TYPHIMURIUM, Strain/Indicator: TA1535, Metabolic Activation: NONE, Method: STANDARD PLATE", "result": "inactive; negative"}, {"measurement": "mutagenic call", "setting": "Test System: AMES SALMONELLA TYPHIMURIUM, Strain/Indicator: TA1535, Metabolic Activation: RAT, LIVER, S-9, AROCLOR 1254 (10%), Method: PREINCUBATION", "result": "inactive; negative"}, {"measurement": "mutagenic call", "setting": "Test System: AMES SALMONELLA TYPHIMURIUM, Strain/Indicator: TA1535, Metabolic Activation: RAT, LIVER, S-9, AROCLOR 1254 (30%), Method: PREINCUBATION", "result": "inactive; negative"}, {"measurement": "mutagenic call", "setting": "Test System: AMES SALMONELLA TYPHIMURIUM, Strain/Indicator: TA1535, Metabolic Activation: RAT, LIVER, S-9, AROCLOR 1254, Method: STANDARD PLATE", "result": "active; positive"}, {"measurement": "mutagenic call", "setting": "Test System: AMES SALMONELLA TYPHIMURIUM, Strain/Indicator: TA1537, Metabolic Activation: HAMSTER, LIVER, S-9, AROCLOR 1254 (10 OR 30%), Method: PREINCUBATION", "result": "inactive; negative"}, {"measurement": "mutagenic call", "setting": "Test System: AMES SALMONELLA TYPHIMURIUM, Strain/Indicator: TA1537, Metabolic Activation: NONE, Method: PREINCUBATION", "result": "inactive; negative"}, {"measurement": "mutagenic call", "setting": "Test System: AMES SALMONELLA TYPHIMURIUM, Strain/Indicator: TA1537, Metabolic Activation: NONE, Method: STANDARD PLATE", "result": "active; positive"}, {"measurement": "mutagenic call", "setting": "Test System: AMES SALMONELLA TYPHIMURIUM, Strain/Indicator: TA1537, Metabolic Activation: RAT, LIVER, S-9, AROCLOR 1254 (10 OR 30%), Method: PREINCUBATION", "result": "inactive; negative"}, {"measurement": "mutagenic call", "setting": "Test System: Ames Salmonella typhimurium, Strain/Indicator: TA98, Metabolic Activation: None, Method: Gas exposure method", "result": "active; positive"}, {"measurement": "mutagenic call", "setting": "Test System: Ames Salmonella typhimurium, Strain/Indicator: TA98, Metabolic Activation: Rat, Liver, S9, Sodium phenobarbital and 5,6-benzoflavone (10%), Method: Gas exposure method", "result": "inactive; negative"}, {"measurement": "mutagenic call", "setting": "Test System: Ames Salmonella typhimurium, Strain/Indicator: TA100, Metabolic Activation: None, Method: Gas exposure method", "result": "inactive; negative"}, {"measurement": "mutagenic call", "setting": "Test System: Ames Salmonella typhimurium, Strain/Indicator: TA100, Metabolic Activation: Rat, Liver, S9, Sodium phenobarbital and 5,6-benzoflavone (10%), Method: Gas exposure method", "result": "inactive; negative"}, {"measurement": "mutagenic call", "setting": "Test System: Ames Salmonella typhimurium, Strain/Indicator: TA1535, Metabolic Activation: None, Method: Gas exposure method", "result": "inactive; negative"}, {"measurement": "mutagenic call", "setting": "Test System: Ames Salmonella typhimurium, Strain/Indicator: TA1535, Metabolic Activation: Rat, Liver, S9, Sodium phenobarbital and 5,6-benzoflavone (10%), Method: Gas exposure method", "result": "inactive; negative"}, {"measurement": "mutagenic call", "setting": "Test System: Ames Salmonella typhimurium, Strain/Indicator: TA1537, Metabolic Activation: None, Method: Gas exposure method", "result": "inactive; negative"}, {"measurement": "mutagenic call", "setting": "Test System: Ames Salmonella typhimurium, Strain/Indicator: TA1537, Metabolic Activation: Rat, Liver, S9, Sodium phenobarbital and 5,6-benzoflavone (10%), Method: Gas exposure method", "result": "inactive; negative"}, {"measurement": "mutagenic call", "setting": "Test System: E. COLI, Strain/Indicator: WP2UVRA/PKM101, Metabolic Activation: NONE, Method: GAS EXPOSURE", "result": "active; positive"}, {"measurement": "mutagenic call", "setting": "Test System: E. COLI, Strain/Indicator: WP2UVRA/PKM101, Metabolic Activation: RAT LIVER S-9, PHENOBARBITOL AND 5,6-BENZOFLAVONE, GLUTATHIONE-SUPPLEMENTED, Method: GAS EXPOSURE", "result": "active; positive"}, {"measurement": "mutagenic call", "setting": "Test System: E. COLI, Strain/Indicator: WP2UVRA/PKM101, Metabolic Activation: RAT LIVER S-9, PHENOBARBITOL AND 5,6-BENZOFLAVONE, Method: GAS EXPOSURE", "result": "active; positive"}, {"measurement": "mutagenic call", "setting": "Test System: MOUSE LYMPHOMA, Strain/Indicator: L5178Y (TK+/TK-), Metabolic Activation: RAT, LIVER, S-9, AROCLOR 1254, Method: SUSPENSION/PLATE", "result": "inactive; negative"}, {"measurement": "mutagenic call", "setting": "Test System: UDS RAT HEPATOCYTES, Strain/Indicator: BROMODEOXYURIDINE INCORP, Metabolic Activation: NONE, Method: FLOW CYTOMETRIC ANALYSIS", "result": "inactive; negative"}, {"measurement": "mutagenic call", "setting": "Test System: UDS RAT HEPATOCYTES, Strain/Indicator: THY INCORP, Metabolic Activation: NONE, Method: AUTORADIOGRAPHY", "result": "inactive; negative"}]}, {"smiles": "CCN(CC)c1ccc(N=O)cc1", "values": [{"measurement": "mutagenic call", "setting": "Test System: AMES SALMONELLA TYPHIMURIUM, Strain/Indicator: TA100, Metabolic Activation: NONE, Method: FLUCTUATION TEST", "result": "active; positive"}]}]}
